# ChEMBL document CHEMBL3507680, “University of Dundee, Gates Library screen for HepG2 cell viability”
# Assay: Human HepG2 cell viability assay in 384 well format
# Format: toxicity, cell-based
# Set-up: dose 125 nL, time 70.5 hour; cytotoxicity at 70.5 h: concentration not given beside the values
# Details: HepG2 cells, read-out: Inhibition
row,Structure (SMILES),cytotoxicity at 70.5 h [%]
1,N[C@H]1CN(Cc2cnc(N3CCCC3)nc2)C[C@@H]1C1CC1,-5.36
2,CCC(=O)NC1CCCN(C(=O)c2ccc(OCC3CC3)nc2)C1 (stereo unspecified),15.5
3,Cc1nc(Nc2nnc(C)s2)cc(C2CCCN2C(C)C)n1 (stereo unspecified),5.99
4,CC(C)N(C)S(=O)(=O)N1CCCC1CC(=O)c1cccs1 (stereo unspecified),-0.315
5,COc1cccc(-c2nc(CNCCCn3cccn3)cs2)c1,-3.21
6,C=C(C)CN(CC)C(=O)c1cc(Cl)ccc1NS(C)(=O)=O,-0.344
7,Cn1ccnc1CN1CC[C@@H](NS(C)(=O)=O)[C@@H]1Cc1ccccc1,-10.6
8,COCCC1COC2(CCN(C(=O)c3ccco3)CC2)C1 (stereo unspecified),-5.74
9,CN1CCOC(CNCc2cccc(OCc3ccccn3)c2)C1 (stereo unspecified),-3.38
10,CC(C)c1cc2c(O)nc(CSCC(=O)NCc3ccccn3)nc2s1,-5.56
11,Cc1oc(C(=O)O)cc1S(=O)(=O)Nc1cc(Cl)ccc1F,-7.55
12,Cc1nnc(NCc2ccc(N3CCC(CO)CC3)cc2)c(C#N)c1C,-1.7
13,CCCc1nc(C)cc(NCc2ccc(S(N)(=O)=O)cc2)n1,-16.8
14,CO[C@H]1CN(C(=O)OC(C)(C)C)CC1NCc1cccn1C (stereo partly specified),-8.94
15,Cc1c[nH]c(CN2CCOC(c3ccc(Cl)c(Cl)c3)C2)c(C)c1=O (stereo unspecified),5.88
16,Cc1cnn(CC2CN(CC(=O)Nc3nccs3)CCO2)c1 (stereo unspecified),-2.45
17,CCOc1ccc(Cl)c(C(=O)NCCC(=O)Nc2ccccn2)n1,-6.63
18,COc1ccc(S(=O)(=O)N2CCN(C)c3ncccc3C2)cc1,-5.97
19,Cc1nc(CN2CCCC(NCc3ccc(Cl)s3)C2)no1 (stereo unspecified),-13
20,COCCn1cc(NCc2cccc3cn[nH]c23)cn1,-5.47
21,Cc1cnn(CC2CCCN2Cc2cc(=O)n3ccccc3n2)c1 (stereo unspecified),-5.58
22,Cn1cc(CN2CCO[C@@H]3CN(Cc4ccoc4)C[C@@H]3C2)cn1,-0.642
23,Cc1ccc(CNC2(Cc3cc(-c4ccc(F)cc4)on3)COC2)o1,-2.05
24,Cc1oncc1C(=O)NCC1(O)CCc2ccccc2C1 (stereo unspecified),0.91

row,Structure (SMILES),cytotoxicity at 70.5 h [%]
1,N#Cc1csc(CN(CC(=O)N2CCCC2)CC2CCCO2)c1 (stereo unspecified),0.764
2,COCCOCCNC(=O)c1ccc(N2CCC(C)=N2)cc1,-3.96
3,Cc1ccc([C@@H]2CN(S(=O)(=O)c3cccs3)C[C@H]2N(C)C)cc1,-2.64
4,COC(=O)CN(C)C1CCc2ccccc21 (stereo unspecified),-4.82
5,CC(C)N(C)C(=O)CSCc1ccc(S(=O)(=O)N(C)C)o1,-10.8
6,O=C(NCCNc1ncccn1)c1ccc(-c2ccco2)[nH]c1=O,-2.56
7,Cn1cc(Br)c(=O)c(NS(=O)(=O)c2ccc(Cl)cc2)c1,-18.4
8,CC(NC(N)=O)C(=O)NCc1ccc(Br)c(F)c1 (stereo unspecified),0.261
9,O=S(=O)(NCC1COc2ccccc2C1)N1CCOCC1 (stereo unspecified),-3.96
10,O=C(c1cnn[nH]1)N(CCCO)Cc1cccnc1,1.99
11,Cc1nc(C)n(C2CCCN(C(=O)c3ccn(C(C)C)n3)C2)n1 (stereo unspecified),-6.2
12,O=C(Nc1cccnc1-n1cccn1)N1CCCC(N2CCCC2)C1 (stereo unspecified),-4.62
13,CCC(C)(C)NC(=O)Cn1nc(C)nc1-c1cccc(C)c1,-3.94
14,Cn1ncc2c1C(COCC1CC1)N(Cc1ccoc1)CC2 (stereo unspecified),-19.6
15,COC(=O)c1sccc1S(=O)(=O)N1CCC(Oc2cnccn2)CC1,-7.44
16,Cc1ncsc1C(=O)NCCNC(=O)Cc1cccc(F)c1,-6.49
17,CNC(=O)CN1CCC(CN(C)CCSc2ccccc2)CC1,-0.471
18,COCCN1CCC2(CCCN(c3ncc(F)cn3)C2)C1 (stereo unspecified),-3.02
19,CN(Cc1ccco1)C1CCC12CCN(C(=O)c1ccncc1)CC2 (stereo unspecified),-5.53
20,O=C(C1CCCC1)N1CCC2(CC1)COCCN2CC1CC1,-12.4
21,CC(C)NC(=O)NCCCc1cc(N)n(-c2ccccc2)n1,15.9
22,CCC[C@@H](NC(N)=O)C(=O)N1Cc2ccccc2-c2ccccc2C1,-2.69
23,CC(C)C1CN(C(=O)c2ccsc2)CCS1 (stereo unspecified),-9.62
24,C[C@H](NC(=O)C1CC1)c1nc2cc(-c3ccc(F)cc3)ncn2n1,2.87

row,Structure (SMILES),cytotoxicity at 70.5 h [%]
1,CC(C)CCC(=O)N1CCC(c2nnc(CN(C)CCO)n2C)CC1,-2.45
2,COCC(=O)N1CCOC(c2cccc(-c3cncnc3)n2)C1 (stereo unspecified),-5.56
3,CCc1nc(C2CCCN2C(=O)c2ccc3c(c2)nc(C)n3C)no1 (stereo unspecified),-8.32
4,CC(NC(=O)Cn1cc(-c2ccccc2)cn1)C1CC1 (stereo unspecified),-6.64
5,CCC(CO)N(Cc1cccnc1)C(=O)c1ccc(C)[nH]c1=O (stereo unspecified),-7.73
6,OCCNc1cc(-c2ccccc2)ncn1,-1.96
7,CN(C)CCCC(=O)N1C[C@H]2CC[C@@H]1CN(Cc1ccccc1)C2,-6.09
8,CC(C)CSCCN1CCCN(S(C)(=O)=O)CC1,9.07
9,O=C(Nc1cc2c(cc1Br)OCCO2)NC1CCS(=O)(=O)C1 (stereo unspecified),10.1
10,CCOCC1CN(C(=O)Cc2ccccn2)Cc2cnn(CC)c21 (stereo unspecified),10.8
11,NC(=O)c1c(SCCN2CCCCC2)sc2c(O)cc(=O)[nH]c12,-7.79
12,CSCCCN1C[C@H](NC(=O)c2cnn(C)c2)[C@@H](C2CC2)C1,-7.31
13,CNCc1cn(CC2CCN(CC(C)(C)CN3CCCC3)CC2)nn1,-13.6
14,CC1(C)CC(=O)c2cnc3nc(N4CCCC4)[nH]c(=O)c3c2C1,-10.4
15,CC(=O)N1CCN(C(=O)Nc2ccccc2)CC2(CC(=O)N(C)C2)C1 (stereo unspecified),26.3
16,CN1CC(c2ccccc2)CC2(CCN(Cc3ncc[nH]3)CC2)C1 (stereo unspecified),-9.18
17,CCc1nc(C2CCCN(C(=O)c3cccc4cn[nH]c34)C2)no1 (stereo unspecified),3.52
18,CCCc1ccc(CN2CCC3(CC2)CNC(=O)C3)o1,21.8
19,CNC(=O)c1c[nH]nc1C1CCCN1c1ncccn1 (stereo unspecified),-4.93
20,Cc1nc2n(n1)CC(NCc1nnc(C(C)(C)C)o1)CC2 (stereo unspecified),-6.83
21,COCCN(Cc1nccs1)C(=O)c1c(C)cc(C)[nH]c1=O,12.2
22,CN(C)Cc1ccccc1CN(C)C(=O)c1ccoc1,-8.04
23,Cc1cccc(CN2CCC3(CCCN(C(=O)NC4CC4)C3)C2=O)n1 (stereo unspecified),25.5
24,CN1CCCC(Cc2cncc(C(=O)NCC3CC3)c2)C1 (stereo unspecified),-1.13

row,Structure (SMILES),cytotoxicity at 70.5 h [%]
1,Clc1cccc2c3c([nH]c12)CCN(Cc1cc2n(n1)CCNC2)C3,22.8
2,CCn1c(CN(C)Cc2cnc(C)s2)nc2c(F)cccc21,-24.5
3,CN(C(=O)c1cc(Cl)c[nH]1)C1CCN(c2ccccn2)CC1,8.18
4,CC(O)CN(Cc1cccc(C(N)=O)c1)c1ccccc1 (stereo unspecified),-7.27
5,Cc1cnc(N)c(C(=O)C2CCN(C(=O)c3cnc(C)nc3C)CC2)c1,-6.36
6,Cc1cc(NC(=O)CC2(Cn3cnnn3)CCCCC2)nn1C,-23.2
7,Cc1[nH]ccc1C(=O)N[C@H]1CN(CCO)C[C@@H]1C1CC1,-6.42
8,CCN(CC)Cc1cnc2n1CCN(Cc1c(C)noc1C)CC2,5.41
9,COc1ccc(CN2CC(n3cccn3)C2)cc1F,-2.24
10,O=C(Nc1ccc2c(c1)OCCO2)N1CCCC1c1ccco1 (stereo unspecified),-10.5
11,CCc1cn[nH]c1C1CCN(c2cc(C)c3ccc(OC)cc3n2)CC1,9.99
12,Cc1nc(CN2CCC23CCN(C(=O)c2ccncc2)CC3)cs1,-9.81
13,CC(=O)NCCC(=O)NCC1(c2c(F)cccc2F)CCCC1,-3.9
14,CCC(SC)C(=O)N1CCC(n2cccn2)CC1 (stereo unspecified),-6.08
15,CCC1=N[C@@]2(CC[C@@H]3CN(S(=O)(=O)CC)C[C@@H]32)C(=O)N1CC(C)C,-1.65
16,O=C(CN(Cc1ccco1)C1CC1)N1CCCCCC1,-1.39
17,Cn1cc(CCC(=O)N2CCN(Cc3ccncc3)CC2)cn1,2.28
18,CN(C)c1cc(C(=O)N2CCCN(c3cccnn3)CC2)ccn1,-9.96
19,CCc1nc(C2CCCN2Cc2nnc(C3CCC3)o2)no1 (stereo unspecified),-2.49
20,NC(=O)CN1CCCCC1c1ccc(-n2ccnc2)nc1 (stereo unspecified),-3.85
21,CC(C)(C)Oc1ccc(NCC(=O)NCc2ccco2)cc1,-18.5
22,CC(C)OC(=O)CN1N=C(C(=O)N2CCCC2)S(=O)(=O)c2ccccc21,1.63
23,O=S(=O)(CCCn1cncn1)Cc1ccc(F)cc1Cl,-8.31
24,O=C1N(Cc2ccncc2)CCC12CCCNC2 (stereo unspecified),-4.76

row,Structure (SMILES),cytotoxicity at 70.5 h [%]
1,CCN(C(=O)CN1CCCC1c1ccc(OC)cc1)c1ccccc1C (stereo unspecified),-0.0656
2,Cc1noc(C)c1-c1ccc(C2CCCN2C(=O)c2cccnn2)nc1 (stereo unspecified),19.1
3,CC(NC(=O)N1CCc2sccc2C1)c1nncn1C (stereo unspecified),-5.43
4,O=C(Nc1cccc(CNCc2ccccn2)c1)C1CCCC1,-4.03
5,Cc1cccc(CN2CC3(CCN(C(=O)C4CC4)CC3)OCC2=O)n1,1.74
6,CC(=O)N1CCCn2nc(CNS(=O)(=O)N3CCCCCC3)cc2C1,-10.6
7,O=C1CC2(CCCC2)CC(=O)N1Cc1nc2ncccn2n1,1.37
8,Cc1nc(CN2CCCC(NCc3cccc4ccccc34)C2)no1 (stereo unspecified),27.7
9,CC(C)C(C)(O)CNc1cccc(F)c1C#N (stereo unspecified),-7.64
10,Clc1ccc(-n2nnnc2C2(NCc3ccco3)CCCCC2)cc1,-11.2
11,COC(=O)NCC1CCC2(CCNCC2)O1 (stereo unspecified),28.3
12,COCC(O)CN1CCC(=O)N(Cc2ccccc2)Cc2ccccc21 (stereo unspecified),-5.42
13,Cc1nc(-c2ccccc2)nc2c1CCN(Cc1nccn1C)CC2,-10.4
14,O=C(O)c1ccnc2c(Br)cccc12,-3.81
15,COc1c(C2CCCN2CC(=O)Nc2cc(C)nn2C)c(C)nn1C (stereo unspecified),-3.3
16,CC(C(=O)N(C)Cc1nnc2n1CCC2)S(C)(=O)=O (stereo unspecified),-1.23
17,Cc1nn(CCNC(=O)c2cc(C3CC3)[nH]n2)c(C)c1Cl,3.19
18,Cc1nc(C)n(Cc2cccc(NC3CCN(C)C3=O)c2)n1 (stereo unspecified),-10.6
19,CC(Cn1cccn1)n1cnc2cccc(Cl)c2c1=O (stereo unspecified),7.81
20,CCc1nc(CN2CCCN(C(=O)C3CCOC3)CC2)cs1 (stereo unspecified),7.45
